# Read-outs that look alike come from different tables or passages of the source.
# Assays:
# E. coli DH5 [1] = experiment: Minimum inhibitory concentration (MIC) of chloramphenicol for cells expressing plasmid-derived ribosomes (CAT reporter); assay type: cell-based; settings: for MIC: Escherichia coli
# Procedure: Bacterial strains and media. All plasmids were maintained and expressed in E. coli DH5 (supE44, hsdR17, recA1, endA1, gyrA96, thi-1 and relA1) (36). To induce synthesis of plasmid-derived rRNA from the lacUV5 promoter, IPTG was added to a final concentration of 1 mM. Chloramphenicol acetyltransferase activity was determined essentially as described by Nielsen et al. (1989) Anal. Biochem. 179: 19-23. Cultures for CAT assays were grown in LB-Ap100. MIC were determined by standard methods in microtiter plates as described in Lee, K., et al. (1997) J. Mol. Biol. 269: 732-743.
# Minimum inhibitory concentration determination. MICs were determined by standard methods in microtiter plates or on solid medium. Overnight cultures grown in LB-Ap100 were diluted and induced in the same medium containing 1 mM IPTG for three hours. Approximately 10^4 induced cells were then added to wells (or spotted onto solid medium) containing LB-Ap100+ IPTG (1 mM) and chloramphenicol at increasing concentrations.
# E. coli DH5 [2] = experiment: as above; assay type: cell-based; settings: for MIC: Escherichia coli; remark: listed apart in the source
smiles,measurement,setting,value
O=C(N[C@H](CO)[C@H](O)c1ccc([N+](=O)[O-])cc1)C(Cl)Cl [chloramphenicol],MIC,"E. coli DH5 [1]; DH5, 451 of 536 selected MBS-RBS isolates (84.1%), in the presence of inducer, read-out: MIC of chloramphenicol",400 to 600 µg/mL
same,MIC,"E. coli DH5 [1]; DH5, 24 h, cells expressing wild-type rRNA from pRNA122 (unmutated control), induced with 1 mM IPTG, 24 hours, read-out: MIC of chloramphenicol",600 µg/mL
same,MIC,"E. coli DH5 [1]; DH5, 24 h, nine slow growing MBS-RBS isolates (1.7%), in the presence of inducer, scored after 24 hours, read-out: MIC of chloramphenicol",< 350 µg/mL
same,MIC,"E. coli DH5 [1]; DH5, pRNA122 (specialized ribosomes), induced cells, read-out: MIC of chloramphenicol",550 to 600 µg/mL
same,MIC,"E. coli DH5 [1]; DH5, read-out: MIC of chloramphenicol, mean over mutants, cells expressing 78 functional 790-loop mutants in pRNA122, standard deviation 89",320 µg/mL
same,MIC,"E. coli DH5 [1]; DH5, read-out: MIC of chloramphenicol, median and mode over mutants, cells expressing 78 functional 790-loop mutants in pRNA122",350 µg/mL
same,MIC,"E. coli DH5 [1]; DH5, read-out: MIC of chloramphenicol, remaining 76 selected MBS-RBS clones (14.2%), in the presence of inducer",600 µg/mL
same,chloramphenicol concentration to which cells are sensitive,E. coli DH5 [1]; pRNA122 + wt MBS: CAT message translated by wild-type ribosomes,< 10 µg/mL
same,"MIC of chloramphenicol, range over mutants",E. coli DH5 [1]; {},150 to 550 µg/mL
same,MIC,"E. coli DH5 [2]; DH5, pRNA122 (specialized ribosomes), uninduced, read-out: background chloramphenicol MIC",40 to 50 µg/mL
same,MIC,"E. coli DH5 [2]; DH5, uninduced cells containing pRNA100 (FIG. 13), read-out: MIC of chloramphenicol",100 µg/mL
same,Chloramphenicol resistance,E. coli DH5 [2]; uninduced cells containing pRNA100,75 µg/mL
